Source: US12110279B2, “Triazolones, tetrazolones, and imidazolones, or their salts, and pharmaceutical compositions comprising the same” (Yuhan Corporation, priority 2021, dated 2024)
Structures can show the parent of a compound that is named as a salt. Where two headings read alike, the source gives them in different places.

Experiments:
Format in all cases: biochemical
[1] = target: T1, recombinant human MAO-B (monoamine oxidase-B) (Homo sapiens, UniProt P27338); experiment: Amplex Red HRP-coupled amine oxidase activity evaluation, recombinant human MAO-B; settings: substrate 1 mM benzylamine; read-out: Inhibitory Activity (IC50, nM) MAO-B
T1 construct: purchased Sigma-Aldrich
T1 sequence (P27338 1-520): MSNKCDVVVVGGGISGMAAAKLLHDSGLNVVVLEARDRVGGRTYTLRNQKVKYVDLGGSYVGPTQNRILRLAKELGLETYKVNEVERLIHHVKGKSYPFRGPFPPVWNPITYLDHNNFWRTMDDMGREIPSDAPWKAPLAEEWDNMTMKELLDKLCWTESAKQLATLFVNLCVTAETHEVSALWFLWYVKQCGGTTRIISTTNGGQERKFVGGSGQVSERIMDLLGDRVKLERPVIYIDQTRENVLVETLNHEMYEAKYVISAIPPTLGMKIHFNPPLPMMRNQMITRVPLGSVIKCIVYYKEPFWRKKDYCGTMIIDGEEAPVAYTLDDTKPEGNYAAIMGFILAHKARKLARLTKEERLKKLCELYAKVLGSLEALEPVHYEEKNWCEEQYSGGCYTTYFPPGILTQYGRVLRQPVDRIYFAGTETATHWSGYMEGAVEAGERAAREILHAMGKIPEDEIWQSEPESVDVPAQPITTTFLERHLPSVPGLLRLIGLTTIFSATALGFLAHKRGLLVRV
Description: [The source words this procedure for another target and says it was used here with some conditions changed.] (§1) The compounds according to the present technology were evaluated in terms of activity on recombinant human VAP-1 (R&D systems) by measuring the level of hydrogen peroxide in horseradish peroxidase (HRP)-coupled reaction using Amplex Red Hydrogen Peroxide Assay Kit (Molecular Probes, Invitrogen, USA). The experiment was carried out at room temperature using benzylamine as a substrate. In the HRP-coupled reaction, hydrogen peroxide oxidation of 10-acetyl-3,7-dihydroxyphenoxazine (Amplex Red reagent) produces resorufin, which is a highly fluorescent compound. Briefly, the test compound was dissolved in dimethyl sulfoxide (DMSO) at a concentration of 20 mM. The dose-response assessment was made by 1:3 serial dilution in DMSO, thereby creating an 8-point curve. The concentration of the upper part was controlled according to the efficacy of the compounds, followed by dilution with a reaction buffer solution to obtain a final DMSO concentration of less than 1%. To each well of a 96 black well plate, human VAP-1 purified in 50 mM sodium phosphate buffer solution (pH7.4) was added. The test compounds dissolved in DMSO were incubated with the human VAP-1 enzymes at 37° C. for 30 minutes. After 30-minute incubation, each well was added with a reaction mixture containing 200 uM Amplex Red reagent prepared from 50 mM sodium phosphate buffer solution (pH 7.4), 1 mM benzylamine, and 1 U/mL HRP. Fluorescence intensity was measured at several time points during 1-2 hours using a microplate reader (Flexstation3, Molecular Devices) under the wavelength condition exciting at 544 nm and reading the emission at 590 nm. The inhibitory effect of the compounds was measured as a decrease (%) in the signal rate as compared to the control group without any inhibitor (only diluted DMSO). Data was fixed to a logistic model with four variables and IC50 value was calculated using GraphPad Prism program.

[2] = target: T2, recombinant human VAP-1 (Homo sapiens, UniProt Q16853); experiment: Amplex Red HRP-coupled amine oxidase activity evaluation, recombinant human VAP-1; settings: substrate 1 mM benzylamine; 30 min preincubation at 37° C.; read-out: Inhibitory Activity (IC50, nM) human VAP-1
T2 construct: purchased R&D systems
T2 sequence (Q16853 1-763): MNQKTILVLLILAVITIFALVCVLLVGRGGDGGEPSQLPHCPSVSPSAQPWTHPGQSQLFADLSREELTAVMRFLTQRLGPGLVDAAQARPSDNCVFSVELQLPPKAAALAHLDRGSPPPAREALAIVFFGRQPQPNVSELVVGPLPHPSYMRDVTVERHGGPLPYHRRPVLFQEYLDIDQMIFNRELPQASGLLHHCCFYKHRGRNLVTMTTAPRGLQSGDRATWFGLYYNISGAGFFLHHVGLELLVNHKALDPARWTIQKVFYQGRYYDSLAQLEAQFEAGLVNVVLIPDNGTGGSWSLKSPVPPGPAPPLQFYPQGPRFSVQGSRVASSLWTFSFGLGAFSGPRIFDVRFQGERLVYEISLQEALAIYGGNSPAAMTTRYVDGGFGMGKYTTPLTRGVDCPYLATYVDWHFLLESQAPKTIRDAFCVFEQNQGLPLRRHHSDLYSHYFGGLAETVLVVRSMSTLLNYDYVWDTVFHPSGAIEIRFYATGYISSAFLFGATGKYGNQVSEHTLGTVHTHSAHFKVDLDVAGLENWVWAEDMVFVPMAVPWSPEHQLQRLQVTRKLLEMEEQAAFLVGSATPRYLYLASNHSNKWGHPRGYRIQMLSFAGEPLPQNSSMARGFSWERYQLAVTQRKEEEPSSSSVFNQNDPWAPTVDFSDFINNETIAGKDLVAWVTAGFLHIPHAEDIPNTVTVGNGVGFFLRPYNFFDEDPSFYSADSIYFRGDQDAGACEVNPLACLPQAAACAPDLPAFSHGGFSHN
Description: as §1

[3] = target: T3, recombinant human DAO (diamine oxidase) (Homo sapiens, UniProt P19801); experiment: Amplex Red HRP-coupled amine oxidase activity evaluation, recombinant human DAO
T3 construct: purchased R&D systems
T3 sequence (P19801 20-751): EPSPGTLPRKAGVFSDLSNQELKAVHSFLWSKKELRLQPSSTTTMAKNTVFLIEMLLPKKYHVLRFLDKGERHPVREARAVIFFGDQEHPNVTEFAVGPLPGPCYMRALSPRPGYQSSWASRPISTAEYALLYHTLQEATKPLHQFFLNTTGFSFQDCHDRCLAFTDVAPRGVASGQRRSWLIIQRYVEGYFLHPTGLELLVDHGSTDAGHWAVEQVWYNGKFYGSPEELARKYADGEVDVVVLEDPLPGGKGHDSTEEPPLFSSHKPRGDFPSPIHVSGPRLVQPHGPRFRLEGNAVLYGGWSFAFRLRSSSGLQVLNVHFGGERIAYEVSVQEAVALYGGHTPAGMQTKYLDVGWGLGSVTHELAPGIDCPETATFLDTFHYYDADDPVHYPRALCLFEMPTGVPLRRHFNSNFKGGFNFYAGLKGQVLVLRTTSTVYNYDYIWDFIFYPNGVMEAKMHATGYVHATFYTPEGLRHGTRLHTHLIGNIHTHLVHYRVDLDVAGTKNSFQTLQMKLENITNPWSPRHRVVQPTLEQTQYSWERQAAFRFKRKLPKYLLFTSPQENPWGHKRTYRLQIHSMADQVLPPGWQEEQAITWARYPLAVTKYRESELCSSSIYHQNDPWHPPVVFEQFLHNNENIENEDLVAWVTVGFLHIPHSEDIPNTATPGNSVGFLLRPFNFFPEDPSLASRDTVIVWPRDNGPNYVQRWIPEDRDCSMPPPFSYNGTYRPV
Description: [The source words this procedure for another target and says it was used here with some conditions changed.] as §1

[4] = target: T4, recombinant human MAO-A (monoamine oxidase-A) (Homo sapiens, UniProt P21397); experiment: Amplex Red HRP-coupled amine oxidase activity evaluation, recombinant human MAO-A; settings: substrate 0.5 mM tyramine; read-out: Inhibitory Activity (IC50, nM) MAO-A
T4 construct: purchased Sigma-Aldrich
T4 sequence (P21397 1-527): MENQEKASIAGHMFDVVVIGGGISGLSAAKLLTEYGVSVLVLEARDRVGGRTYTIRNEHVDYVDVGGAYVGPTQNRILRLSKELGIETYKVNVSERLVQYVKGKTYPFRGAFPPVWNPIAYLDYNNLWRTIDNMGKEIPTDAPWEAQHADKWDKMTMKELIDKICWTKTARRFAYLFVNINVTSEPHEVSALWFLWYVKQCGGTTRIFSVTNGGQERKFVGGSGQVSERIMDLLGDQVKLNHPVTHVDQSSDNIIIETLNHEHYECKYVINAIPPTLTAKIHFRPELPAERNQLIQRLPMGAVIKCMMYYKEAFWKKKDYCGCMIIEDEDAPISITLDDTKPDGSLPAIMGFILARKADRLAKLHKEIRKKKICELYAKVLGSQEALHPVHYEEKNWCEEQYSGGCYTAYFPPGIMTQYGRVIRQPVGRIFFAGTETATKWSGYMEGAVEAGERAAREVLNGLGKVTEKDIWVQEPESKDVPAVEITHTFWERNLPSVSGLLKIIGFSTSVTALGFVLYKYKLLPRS
Description: [The source words this procedure for another target and says it was used here with some conditions changed.] as §1

[5] = substrate 1 mM putrescine, read-out: Inhibitory Activity (IC50, nM) DAO

Row | IC50 [1] | IC50 [2] | IC50 [3, 5] | IC50 [4] | IC50 [3] | Structure (SMILES)
1 | 3990 nM | 1.2 nM | 65 nM | > 100000 nM | – | NCC(Cn1nnn(-c2ccc(-c3ccc(N4CCNCC4)cc3)cc2)c1=O)=C(F)F [Example 17, 1-[2-(aminomethyl)-3,3-difluoro-allyl]-4-[4-(4-piperazin-1-ylphenyl)phenyl]tetrazol-5-one di-trifluoroacetate]
2 | > 100000 nM | 2.5 nM | > 100000 nM | > 100000 nM | – | Cc1nn(CC(CN)=C(F)F)c(=O)n1Cc1ccc(-c2ccc3c(c2)OCO3)s1 [Example 6, 2-[2-(aminomethyl)-3,3-difluoro-allyl]-4-[[5-(1,3-benzodioxol-5-yl)-2-thienyl]methyl]-5-methyl-1,2,4-triazol-3-one trifluoroacetate]
3 | 59400 nM | > 100 nM | > 100000 nM | > 100000 nM | – | Cc1ccc(-c2ccc(S(C)(=O)=O)cc2)nc1-n1nnn(CC(CN)=C(F)F)c1=O [Example 23, 1-[2-(aminomethyl)-3,3-difluoro-allyl]-4-[3-methyl-6-(4-methylsulfonylphenyl)-2-pyridyl]tetrazol-5-one trifluoroacetate]
4 | 203 nM | 0.4 nM | 3.1 nM | > 100000 nM | – | CCn1cc(-c2ccc(-n3nnn(CC(CN)=C(F)F)c3=O)s2)ccc1=O [Example 9, 5-[5-[4-[2-(aminomethyl)-3,3-difluoro-allyl]-5-oxo-tetrazol-1-yl]-2-thienyl]-1-ethyl-pyridin-2-one trifluoroacetate]
5 | 19700 nM | 0.4 nM | 911 nM | 72800 nM | – | CS(=O)(=O)c1ccc(-c2ccc(Cn3nnn(CC(CN)=C(F)F)c3=O)s2)cc1 [Example 43, 1-[2-(aminomethyl)-3,3-difluoro-allyl]-4-[[5-(4-methylsulfonylphenyl)-2-thienyl]methyl]tetrazol-5-one trifluoroacetate]
6 | 206 nM | 0.8 nM | 1500 nM | 70900 nM | – | NCC(Cn1nnn(Cc2cccc(-c3ccc4c(c3)OCO4)c2)c1=O)=C(F)F [Example 30, 1-[2-(aminomethyl)-3,3-difluoro-allyl]-4-[[3-(1,3-benzodioxol-5-yl)phenyl]methyl]tetrazol-5-one trifluoroacetate]
7 | 768 nM | 0.8 nM | > 100000 nM | > 100000 nM | – | CN(C)c1ccc(-c2csc(-n3nnn(CC(CN)=C(F)F)c3=O)c2)cn1 [Example 38, 1-[2-(aminomethyl)-3,3-difluoro-allyl]-4-[4-[6-(dimethylamino)-3-pyridyl]-2-thienyl]tetrazol-5-one trifluoroacetate]
8 | > 100000 nM | 1.7 nM | > 100000 nM | > 100000 nM | – | CCn1cc(-c2ccc(Cn3c(C)nn(CC(CN)=C(F)F)c3=O)s2)cn1 [Example 1, 2-[2-(aminomethyl)-3,3-difluoro-allyl]-4-[[5-(1-ethylpyrazol-4-yl)-2-thienyl]methyl]-5-methyl-1,2,4-triazol-3-one trifluoroacetate]
9 | 49 nM | 0.4 nM | > 100000 nM | 82600 nM | – | Cc1cc(-c2ccc(-n3nnn(CC(CN)=C(F)F)c3=O)cc2)cc2c1NC(=O)CC2 [Example 20, 6-[4-[4-[2-(aminomethyl)-3,3-difluoro-allyl]-5-oxo-tetrazol-1-yl]phenyl]-8-methyl-3,4-dihydro-1H-quinolin-2-one trifluoroacetate]
10 | 4400 nM | 2.9 nM | – | 36900 nM | 56 nM | NCC(Cn1nnn(-c2cncc(-c3ccc4c(c3)OCO4)c2)c1=O)=C(F)F [Example 48, 1-[2-(aminomethyl)-3,3-difluoro-allyl]-4-[5-(1,3-benzodioxol-5-yl)-3-pyridyl]tetrazol-5-one trifluoroacetate]
11 | 80500 nM | > 100 nM | 38200 nM | > 100000 nM | – | NCC(Cn1ccn(Cc2ccc(-c3ccn4ncnc4c3)s2)c1=O)=C(F)F [Example 53, 1-[2-(aminomethyl)-3,3-difluoro-allyl]-3-[[5-([1,2,4]triazolo[1,5-a]pyridin-7-yl)-2-thienyl]methyl]imidazol-2-one trifluoroacetate]
12 | 1430 nM | 0.4 nM | 32200 nM | > 100000 nM | – | CS(=O)(=O)c1ccc(-c2csc(-n3nnn(CC(CN)=C(F)F)c3=O)c2)cc1 [Example 35, 1-[2-(aminomethyl)-3,3-difluoro-allyl]-4-[4-(4-methylsulfonylphenyl)-2-thienyl]tetrazol-5-one trifluoroacetate]
